Results as given in patent US20250281478A1, “METHODS FOR PREVENTING OR TREATING KIDNEY DISEASES” (JEAMOON BEIJING CO., LTD., priority 2022, published 2025).

How the values were obtained:
Format in all cases: in vivo, C57BL/6N mice
[1] = test system: mice with adenine-induced renal failure; assay: Serum creatinine (CREA) in adenine-induced renal failure mice; settings: for CREA after modeling for 3 weeks (after drug administration for 2 weeks) / CREA after modeling for 1 week (before drug administration): mean ± SD
Protocol: (§1) • a) Control group: Fed with adenine-free feed; other procedures were the same as those in the model group. • b) Model group: Fed with feed containing 0.25% adenine for modelling. • c) LY-10 mg/kg group: Model+LY2922470 (10 mg/kg, p.o., QD). • d) LY-30 mg/kg group: Model+LY2922470 (30 mg/kg, p.o., QD). • e) LY-60 mg/kg group: Model+LY2922470 (60 mg/kg, p.o., QD). • f) TAK875 group: Model+TAK875 (30 mg/kg, p.o., QD).
(§2) Except for the control group, all other mice were fed with a diet containing 0.25% adenine for modelling. The control group was fed with a normal diet. All mice were allowed free access to food. One week after modeling, each group of mice was administered the respective treatment via oral gavage once daily in the afternoon for two consecutive weeks. The control group and the model group received vehicle under a same condition. The adenine-containing diet was continuously administered for modeling throughout the treatment period until the end of the experiment. The physical condition of the mice was monitored, and body weight was measured and recorded weekly. Blood samples were collected from the orbital venous plexus at 1 week (post-modeling) and 3 weeks (after 2 weeks of treatment). Serum was separated for the measurement of serum creatinine (CRE) and blood urea nitrogen (BUN). At the end of the two-week treatment, renal function of each group was assessed using a TGFR renal function monitoring and smart analysis system. After testing, tissues were collected from the mice to confirm the efficacy of the treatment.
(§3) Statistical analyses were performed using GraphPad Prism 8.0 software. Continuous data of each group were expressed as mean+SD. One-way ANOVA was used for multi-group comparisons, and Student's t-test was used for comparisons between two groups. A p-value<0.05 was considered statistically significant. For categorical data, chi-square tests were used to compare between groups, with p<0.05 indicating a statistically significant difference.
(§4) Mice were fed a 0.25% adenine-containing diet. After one week, the mice were treated with LY2922470 or TAK875. During the treatment period, the adenine-containing diet was continued for modeling. After three weeks of adenine feeding (i.e., two weeks of drug administration), blood samples were collected from the mice, and serum was isolated for CREA and BUN measurements.

[2] = test system: mice with sustained adenine-induced renal failure; assay: Glomerular filtration rate in mice with sustained adenine-induced renal failure (TGFR system); settings: 3 weeks continuous 0.25% adenine diet, FIG. 4
Protocol: as §1, §2, §3
One week later, LY2922470 or TAK875 was administrated for treatment. […]

[3] = test system: mice with adenine-induced renal failure; assay: Renal fibrosis by Masson's trichrome staining in adenine-induced renal failure mice; settings: LY2922470 30 mg/kg/day orally for 2 weeks; 3 weeks of modeling; FIG. 6
Protocol: Mice were modeled and administered drugs as described in Example 3. After two weeks of drug administration, the mice were euthanized, and their kidneys were fixed, sectioned, stained with Masson's trichrome, and analyzed.
Whole-slide scanning was performed using a fully automated digital pathology scanner KF-PRO-120 from Ningbo Jiangfeng Bioinformatics Technology Co., Ltd. Masson-stained images were analyzed using the Area Quantification module in HALO software. The blue staining of collagen fibers was used as the unified criterion for positivity. The images were analyzed, and the percentage of blue-stained collagen fibers in the tissue was calculated.
Statistical analysis was conducted using GraphPad Prism 8.0. Continuous data for each group were expressed as mean+SD. One-way ANOVA was used for multi-group comparisons, and Student's t-test was used for comparisons between two groups. A p-value<0.05 was considered statistically significant. For categorical data, chi-square tests were used for comparisons among groups, and a p-value<0.05 was considered statistically significant.

[4] = test system: mice with two-week adenine-induced renal failure; assay: Glomerular filtration rate in mice with two-week adenine-induced renal failure; settings: adenine diet replaced with normal chow after two weeks; LY2922470 p.o.; FIG. 5
Description: Therefore, the modeling protocol was redesigned to re-evaluate the therapeutic effect of LY2922470 on renal failure (the adenine diet was replaced with normal chow after two weeks of feeding; other conditions remained unchanged).

[5] = test system: mice with adenine-induced renal failure; assay: Blood urea nitrogen (BUN) in adenine-induced renal failure mice; settings: for BUN after modeling for 3 weeks (after drug administration for 2 weeks) / BUN after modeling for 1 week (before drug administration): mean ± SD
Protocol: as §1, §2, §3, §4

[6] = LY2922470 30 mg/kg p.o. QD for 2 weeks
[7] = LY2922470 at different doses p.o. QD for 2 weeks
[8] = based on Tables 2 and 3 (CREA and BUN), p.o.
[9] = baseline of the LY2922470 10 mg/kg group
[10] = baseline of the LY2922470 30 mg/kg group
[11] = baseline of the LY2922470 60 mg/kg group

CC#C[C@@H](CC(=O)O)c1ccc(OCc2ccc(CN3CCCc4cccc(OC)c43)s2)cc1 [LY2922470]
CREA level compared with the model group [1, 6]: significantly decreased
CREA after modeling for 3 weeks (after drug administration for 2 weeks) ([1]; LY2922470 30 mg/kg p.o. QD): 79.67 ± 19.28 µmol/L
CREA level compared with the model group ([1]; LY2922470 60 mg/kg p.o. QD for 2 weeks): significantly decreased
CREA after modeling for 3 weeks (after drug administration for 2 weeks) ([1]; LY2922470 60 mg/kg p.o. QD): 66.47 ± 13.35 µmol/L
Serum CREA level compared with the model group [1, 7]: reduced
Dose with the best effect (CREA, BUN) [1, 8]: 30 mg/kg/day
Doses with therapeutic efficacy (CREA, BUN) [1, 8]: 30 to 60 mg/kg/day
CREA after modeling for 1 week (before drug administration) [1, 9]: 56.14 ± 13.41 µmol/L
CREA after modeling for 1 week (before drug administration) [1, 10]: 54.85 ± 17.55 µmol/L
CREA after modeling for 1 week (before drug administration) [1, 11]: 57.02 ± 11.90 µmol/L
Renal function (GFR) improvement among the doses [2, 6]: most significant improvement
Renal function (GFR) compared with the model group ([2]; LY2922470 at different doses (10, 30, 60 mg/kg p.o. QD) for 2 weeks): improved
Collagen deposition (Masson staining) [3]: decreased
Degree of renal fibrosis (Masson staining) [3]: alleviated
Extracellular matrix (ECM) accumulation [3]: inhibited
Renal function (GFR) compared with the model group [4]: significantly improved
BUN level compared with the model group [5, 6]: statistically significant reduction
BUN after modeling for 3 weeks (after drug administration for 2 weeks) ([5]; LY2922470 30 mg/kg p.o. QD): 15.15 ± 4.53 mmol/L
BUN after modeling for 3 weeks (after drug administration for 2 weeks) ([5]; LY2922470 60 mg/kg p.o. QD): 13.85 ± 1.33 mmol/L
Serum BUN level compared with the model group [5, 7]: reduced
BUN after modeling for 1 week (before drug administration) [5, 9]: 10.34 ± 3.55 mmol/L
BUN after modeling for 1 week (before drug administration) [5, 10]: 10.25 ± 3.42 mmol/L
BUN after modeling for 1 week (before drug administration) [5, 11]: 10.40 ± 3.83 mmol/L
